Source: PubChem BioAssay (NCI)
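Abbreviation: GI50, concentration required for 50% inhibition of growth. TGI marks complete inhibition of growth.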

Key:
Test in all cases: growth of human tumour cells (NCI), 384-well format
[1] = tested on: SK-OV-3 ovarian
[2] = tested on: IGROV1 ovarian
[3] = tested on: OVCAR-8 ovarian
[4] = tested on: EKVX NSCLC
[5] = tested on: SR leukemia
[6] = tested on: COLO 205 colon
[7] = tested on: DU-145 prostate
[8] = tested on: HOP-62 NSCLC
[9] = tested on: SK-MEL-5 melanoma
[10] = tested on: UACC-62 melanoma
[11] = tested on: HT29 colon
[12] = tested on: HL-60(TB) leukemia
[13] = tested on: U251 glioblastoma
[14] = tested on: NCI-H460 NSCLC
[15] = tested on: NCI-H522 lung
[16] = tested on: SF-268 CNS
[17] = tested on: MCF7 breast
[18] = tested on: NCI/ADR-RES ovarian
[19] = tested on: NCI-H23 lung
[20] = tested on: RPMI-8226 leukemia
[21] = tested on: SK-MEL-28 melanoma
[22] = tested on: HCT-116 colon
[23] = tested on: OVCAR-3 ovarian
[24] = tested on: M14 melanoma
[25] = tested on: HCC-2998 colon
[26] = tested on: LOX IMVI melanoma
[27] = tested on: SNB-75 CNS
[28] = tested on: T-47D breast
[29] = tested on: SNB-19 CNS
[30] = tested on: MDA-MB-231 breast
[31] = tested on: BT-549 breast
[32] = tested on: OVCAR-5 ovarian
[33] = tested on: KM12 colon
[34] = tested on: HCT-15 colon
[35] = tested on: NCI-H226 lung
[36] = tested on: UO-31 renal
[37] = tested on: ACHN renal
[38] = tested on: UACC-257 melanoma
[39] = tested on: A549 NSCLC
[40] = tested on: CAKI-1 renal
[41] = tested on: 786-0 renal
[42] = tested on: MOLT-4 leukemia
[43] = tested on: HS 578T breast
[44] = tested on: SW-620 colon
[45] = tested on: MDA-MB-435 melanoma
[46] = tested on: TK-10 renal
[47] = tested on: RXF 393 renal
[48] = tested on: HOP-92 NSCLC
[49] = tested on: NCI-H322M lung
[50] = tested on: CCRF-CEM leukemia
[51] = tested on: MALME-3M melanoma
[52] = tested on: SF-295 CNS
[53] = tested on: A498 renal
[54] = tested on: PC-3 prostate
[55] = tested on: MDA-MB-468 breast
[56] = tested on: SN12C renal
[57] = tested on: OVCAR-4 ovarian
[58] = tested on: SF-539 CNS
[59] = tested on: SK-MEL-2 melanoma

C=CC(=O)N1CCC([C@@H]2CCNc3c(C(N)=O)c(-c4ccc(Oc5ccccc5)cc4)nn32)CC1
GI50 [1]: 14.2 µM
TGI [1]: > 69.8 µM
GI50 [2]: 4.22 µM
TGI [2]: 16.9 µM
GI50 [3]: 17.2 µM
TGI [3]: 36.1 µM
GI50 [4]: 6.77 µM
TGI [4]: 31.2 µM
GI50 [5]: 14.2 µM
TGI [5]: 27.6 µM
GI50 [6]: 21.7 µM
TGI [6]: 45.6 µM
GI50 [7]: 11.6 µM
TGI [7]: 30.6 µM
GI50 [8]: 19.6 µM
TGI [8]: 49.6 µM
GI50 [9]: 15.6 µM
TGI [9]: 30 µM
GI50 [10]: 16.7 µM
TGI [10]: 34 µM
GI50 [11]: 17.8 µM
TGI [11]: 33.4 µM
GI50 [12]: 17.1 µM
TGI [12]: 31.3 µM
GI50 [13]: 19.4 µM
TGI [13]: 40.7 µM
GI50 [14]: 25.2 µM
TGI [14]: > 61.8 µM
GI50 [15]: 3.46 µM
TGI [15]: 12.1 µM
GI50 [16]: 15.4 µM
TGI [16]: 40.6 µM
GI50 [17]: 23.7 µM
TGI [17]: > 69 µM
GI50 [18]: 16.9 µM
TGI [18]: 36.5 µM
GI50 [19]: 16.8 µM
TGI [19]: 31.6 µM
GI50 [20]: 16.3 µM
TGI [20]: 30.7 µM
GI50 [21]: 18 µM
TGI [21]: 33.6 µM
GI50 [22]: 17.6 µM
TGI [22]: 32.8 µM
GI50 [23]: 9.13 µM
TGI [23]: 25.6 µM
GI50 [24]: 18 µM
TGI [24]: 36.8 µM
GI50 [25]: 11.7 µM
TGI [25]: 24.2 µM
GI50 [26]: 14.9 µM
TGI [26]: 28.5 µM
GI50 [27]: 17.4 µM
TGI [27]: 50.6 µM
GI50 [28]: 7.05 µM
TGI [28]: > 77.2 µM
GI50 [29]: 20 µM
TGI [29]: 51 µM
GI50 [30]: 17.4 µM
TGI [30]: 33.6 µM
GI50 [31]: 13.4 µM
TGI [31]: 26.4 µM
GI50 [32]: 48.2 µM
TGI [32]: > 100 µM
GI50 [33]: 42.5 µM
TGI [33]: > 100 µM
GI50 [34]: 16.8 µM
TGI [34]: 32.1 µM
GI50 [35]: 14.2 µM
TGI [35]: 32.3 µM
GI50 [36]: 12.1 µM
TGI [36]: > 80.8 µM
GI50 [37]: 9.75 µM
TGI [37]: 44.6 µM
GI50 [38]: 17.8 µM
TGI [38]: 35.3 µM
GI50 [39]: 16.2 µM
TGI [39]: > 52.4 µM
GI50 [40]: 14.7 µM
TGI [40]: 47.7 µM
GI50 [41]: 15.4 µM
TGI [41]: 37.7 µM
GI50 [42]: 14.3 µM
TGI [42]: 27.6 µM
GI50 [43]: 16 µM
TGI [43]: 30.8 µM
GI50 [44]: 18.7 µM
TGI [44]: 36.5 µM
GI50 [45]: 23 µM
TGI [45]: 53.7 µM
GI50 [46]: 5.89 µM
TGI [46]: 27.3 µM
GI50 [47]: 7.6 µM
TGI [47]: 20.2 µM
GI50 [48]: 14.6 µM
TGI [48]: 29.7 µM
GI50 [49]: 2.53 µM
TGI [49]: 15 µM
GI50 [50]: 19.7 µM
TGI [50]: 35 µM
GI50 [51]: 15.3 µM
TGI [51]: 29.1 µM
GI50 [52]: 28.5 µM
TGI [52]: > 80.2 µM
GI50 [53]: 15.1 µM
TGI [53]: > 56.3 µM
GI50 [54]: 31.6 µM
TGI [54]: > 86 µM
GI50 [55]: 0.684 µM
TGI [55]: 4.09 µM
GI50 [56]: 17.6 µM
TGI [56]: 55 µM
GI50 [57]: 15.5 µM
TGI [57]: 45.9 µM
GI50 [58]: 17.8 µM
TGI [58]: 35.7 µM

O=C1c2ccccc2-c2n[nH]c3cccc1c23
GI50 [1]: 3.03 µM
TGI [1]: 14.6 µM
GI50 [2]: 4.82 µM
TGI [2]: 64.6 µM
GI50 [3]: 22.1 µM
TGI [3]: > 100 µM
GI50 [4]: 4.49 µM
TGI [4]: > 100 µM
GI50 [59]: 5.03 µM
TGI [59]: 17 µM
GI50 [5]: 2.38 µM
TGI [5]: 6.99 µM
GI50 [6]: 10.3 µM
TGI [6]: 26 µM
GI50 [7]: 14.7 µM
TGI [7]: > 100 µM
GI50 [8]: 14.8 µM
TGI [8]: 69.1 µM
GI50 [9]: 5.77 µM
TGI [9]: 26.6 µM
GI50 [10]: 15.5 µM
TGI [10]: > 100 µM
GI50 [11]: 11.4 µM
TGI [11]: > 100 µM
GI50 [12]: 10.4 µM
TGI [12]: > 100 µM
GI50 [13]: 9.02 µM
TGI [13]: > 100 µM
GI50 [14]: 6.56 µM
TGI [14]: 37.6 µM
GI50 [15]: 7.22 µM
TGI [15]: 53.5 µM
GI50 [16]: 5.72 µM
TGI [16]: 57 µM
GI50 [17]: 37.4 µM
TGI [17]: > 100 µM
GI50 [18]: 53.9 µM
TGI [18]: > 100 µM
GI50 [19]: 19.8 µM
TGI [19]: > 100 µM
GI50 [20]: 4.09 µM
TGI [20]: 30 µM
GI50 [21]: 74.8 µM
TGI [21]: > 100 µM
GI50 [23]: 20.2 µM
TGI [23]: > 100 µM
GI50 [24]: 5.93 µM
TGI [24]: 58.9 µM
GI50 [25]: 3.74 µM
TGI [25]: 43.5 µM
GI50 [27]: 1.87 µM
TGI [27]: 41.5 µM
GI50 [28]: 21.5 µM
TGI [28]: > 100 µM
GI50 [29]: 45.1 µM
TGI [29]: > 100 µM
GI50 [30]: 13.9 µM
TGI [30]: > 100 µM
GI50 [31]: 3.72 µM
TGI [31]: 49.7 µM
GI50 [32]: 17.8 µM
TGI [32]: > 100 µM
GI50 [33]: 2.78 µM
TGI [33]: > 100 µM
GI50 [34]: 4.63 µM
TGI [34]: > 100 µM
GI50 [35]: 2.26 µM
TGI [35]: 11.7 µM
GI50 [37]: 11 µM
TGI [37]: 46.8 µM
GI50 [38]: 27.9 µM
TGI [38]: > 100 µM
GI50 [39]: 15.8 µM
TGI [39]: > 100 µM
GI50 [40]: 3.39 µM
TGI [40]: 14.9 µM
GI50 [41]: 19.2 µM
TGI [41]: > 100 µM
GI50 [42]: 1.74 µM
TGI [42]: 3.76 µM
GI50 [43]: 5.63 µM
TGI [43]: 71.2 µM
GI50 [44]: 11.7 µM
TGI [44]: > 100 µM
GI50 [45]: 17.4 µM
TGI [45]: > 100 µM
GI50 [46]: 4.21 µM
TGI [46]: > 100 µM
GI50 [47]: 11.7 µM
TGI [47]: 81.4 µM
GI50 [48]: 20 µM
TGI [48]: > 100 µM
GI50 [49]: 32.4 µM
TGI [49]: > 100 µM
GI50 [50]: 6 µM
TGI [50]: 25.2 µM
GI50 [52]: 34.1 µM
TGI [52]: > 100 µM
GI50 [53]: 3 µM
TGI [53]: 84.6 µM
GI50 [54]: 20.8 µM
TGI [54]: > 100 µM
GI50 [55]: 2.72 µM
TGI [55]: 12.5 µM
GI50 [56]: 23.3 µM
TGI [56]: > 100 µM
GI50 [57]: 32 µM
TGI [57]: > 100 µM
GI50 [58]: 8.72 µM
TGI [58]: 97.4 µM
